Laboratory results as given in ChEMBL document CHEMBL4507262, “Data for DCP probe A-1596586” (2021).

Assays:
[1] = biological target: Ribosomal protein S6 kinase alpha-6 (Homo sapiens) (UniProt Q9UK32); conditions: Compound concentration 1000.0 nM
[2] = biological target: Serine/threonine-protein kinase PAK 5 (Homo sapiens) (UniProt Q9P286); conditions: Compound concentration 1000.0 nM
[3] = biological target: D(1B) dopamine receptor (Homo sapiens) (UniProt P21918); conditions: Compound concentration 10.0 uM
[4] = biological target: Macrophage colony-stimulating factor 1 receptor (Homo sapiens) (UniProt P07333); conditions: Compound concentration 1000.0 nM
[5] = biological target: Tyrosine-protein kinase ABL2 (Homo sapiens) (UniProt P42684); conditions: Compound concentration 1000.0 nM
[6] = biological target: cAMP-dependent protein kinase catalytic subunit alpha (Homo sapiens) (UniProt P17612); conditions: Compound concentration 1000.0 nM
[7] = biological target: Muscarinic acetylcholine receptor M3 (Homo sapiens) (UniProt P20309); test: M3 (h) Eurofins-Cerep binding assay; set-up: ligand concentration 0.2 nM; conditions: filed as antagonist, Compound concentration 10.0 uM
[8] = biological target: Serine/threonine-protein kinase Sgk2 (Homo sapiens) (UniProt Q9HBY8); conditions: Compound concentration 1000.0 nM
[9] = biological target: Translocator protein (Rattus norvegicus) (UniProt P16257); test: BZD (peripheral) Eurofins-Cerep binding assay; set-up: ligand concentration 0.2 nM; conditions: filed as antagonist, Compound concentration 10.0 uM
[10] = system: Mast/stem cell growth factor receptor Kit (Homo sapiens), P10721 [D816H]; conditions: Compound concentration 1000.0 nM
[11] = biological target: Serine/threonine-protein kinase N2 (Homo sapiens) (UniProt Q16513); conditions: Compound concentration 1000.0 nM
[12] = biological target: Prostaglandin E2 receptor EP2 subtype (Homo sapiens) (UniProt P43116); test: EP2 (h) Eurofins-Cerep binding assay; set-up: ligand concentration 3 nM; conditions: filed as agonist, Compound concentration 10.0 uM
[13] = biological target: Phosphorylase b kinase gamma catalytic chain, skeletal muscle/heart isoform (Homo sapiens) (UniProt Q16816); conditions: Compound concentration 1000.0 nM
[14] = biological target: Dual specificity mitogen-activated protein kinase kinase 4 (Homo sapiens) (UniProt P45985); conditions: Compound concentration 1000.0 nM
[15] = biological target: 5-hydroxytryptamine receptor 2A (Homo sapiens) (UniProt P28223); conditions: Compound concentration 10.0 uM
[16] = biological target: Leucine-rich repeat serine/threonine-protein kinase 2 (Homo sapiens) (UniProt Q5S007); conditions: Compound concentration 1000.0 nM
[17] = biological target: Tyrosine-protein kinase Lyn (Homo sapiens) (UniProt P07948); conditions: Compound concentration 1000.0 nM
[18] = system: Phosphatidylinositol 4,5-bisphosphate 3-kinase catalytic subunit alpha isoform (Homo sapiens), P42336 [E545A]; conditions: Compound concentration 1000.0 nM
[19] = biological target: Testis-specific serine/threonine-protein kinase 3 (Homo sapiens) (UniProt Q96PN8); conditions: Compound concentration 1000.0 nM
[20] = system: Fibroblast growth factor receptor 3 (Homo sapiens), P22607 [G697C]; conditions: Compound concentration 1000.0 nM
[21] = biological target: Serine/threonine-protein kinase WNK1 (Homo sapiens) (UniProt Q9H4A3); conditions: Compound concentration 1000.0 nM
[22] = biological target: Ephrin type-B receptor 3 (Homo sapiens) (UniProt P54753); conditions: Compound concentration 1000.0 nM
[23] = biological target: D(1A) dopamine receptor (Homo sapiens) (UniProt P21728); test: D1 (h) Eurofins-Cerep binding assay; set-up: ligand concentration 0.3 nM; conditions: filed as antagonist, Compound concentration 10.0 uM
[24] = biological target: Bone morphogenetic protein receptor type-1A (Homo sapiens) (UniProt P36894); conditions: Compound concentration 1000.0 nM
[25] = biological target: Fibroblast growth factor receptor 2 (Homo sapiens) (UniProt P21802); conditions: Compound concentration 1000.0 nM
[26] = biological target: Phosphatidylinositol 4-phosphate 3-kinase C2 domain-containing subunit beta (Homo sapiens) (UniProt O00750); conditions: Compound concentration 1000.0 nM
[27] = biological target: Calcium/calmodulin-dependent protein kinase type II subunit alpha (Homo sapiens) (UniProt Q9UQM7); conditions: Compound concentration 1000.0 nM
[28] = biological target: Serine/threonine-protein kinase DCLK3 (Homo sapiens) (UniProt Q9C098); conditions: Compound concentration 1000.0 nM
[29] = biological target: Serine/threonine-protein kinase 17A (Homo sapiens) (UniProt Q9UEE5); conditions: Compound concentration 1000.0 nM
[30] = biological target: Mitogen-activated protein kinase kinase kinase kinase 5 (Homo sapiens) (UniProt Q9Y4K4); conditions: Compound concentration 1000.0 nM
[31] = biological target: STE20-like serine/threonine-protein kinase (Homo sapiens) (UniProt Q9H2G2); conditions: Compound concentration 1000.0 nM
[32] = biological target: Dual specificity testis-specific protein kinase 1 (Homo sapiens) (UniProt Q15569); conditions: Compound concentration 1000.0 nM
[33] = biological target: Phosphatidylinositol 4-phosphate 5-kinase type-1 gamma (Homo sapiens) (UniProt O60331); conditions: Compound concentration 1000.0 nM
[34] = biological target: Rho-associated protein kinase 2 (Homo sapiens) (UniProt O75116); conditions: Compound concentration 1000.0 nM
[35] = biological target: Serine/threonine-protein kinase TAO2 (Homo sapiens) (UniProt Q9UL54); conditions: Compound concentration 1000.0 nM
[36] = biological target: Cyclin-G-associated kinase (Homo sapiens) (UniProt O14976); conditions: Compound concentration 1000.0 nM
[37] = biological target: Dual specificity mitogen-activated protein kinase kinase 3 (Homo sapiens) (UniProt P46734); conditions: Compound concentration 1000.0 nM
[38] = system: Epidermal growth factor receptor (Homo sapiens), P00533 [G719C]; conditions: Compound concentration 1000.0 nM
[39] = biological target: Acetylcholinesterase (Homo sapiens) (UniProt P22303); test: Acetylcholinesterase (h) Eurofins-Cerep enzyme and uptake assay; conditions: Compound concentration 10.0 uM
[40] = biological target: SRSF protein kinase 2 (Homo sapiens) (UniProt P78362); conditions: Compound concentration 1000.0 nM
[41] = biological target: Ribosomal protein S6 kinase alpha-2 (Homo sapiens) (UniProt Q15349); conditions: Compound concentration 1000.0 nM
[42] = biological target: BMP-2-inducible protein kinase (Homo sapiens) (UniProt Q9NSY1); conditions: Compound concentration 1000.0 nM
[43] = biological target: Cyclin-dependent kinase 4 (Homo sapiens) (UniProt P11802); conditions: Compound concentration 1000.0 nM
[44] = biological target: Estrogen receptor (Homo sapiens) (UniProt P03372); test: Estrogen ER alpha (h) Eurofins-Cerep binding assay; set-up: ligand concentration 0.5 nM; conditions: filed as agonist, Compound concentration 10.0 uM
[45] = biological target: Microtubule-associated serine/threonine-protein kinase 1 (Homo sapiens) (UniProt Q9Y2H9); conditions: Compound concentration 1000.0 nM

Chain of 5-hydroxytryptamine receptor 2A (Homo sapiens) (P28223 whole entry): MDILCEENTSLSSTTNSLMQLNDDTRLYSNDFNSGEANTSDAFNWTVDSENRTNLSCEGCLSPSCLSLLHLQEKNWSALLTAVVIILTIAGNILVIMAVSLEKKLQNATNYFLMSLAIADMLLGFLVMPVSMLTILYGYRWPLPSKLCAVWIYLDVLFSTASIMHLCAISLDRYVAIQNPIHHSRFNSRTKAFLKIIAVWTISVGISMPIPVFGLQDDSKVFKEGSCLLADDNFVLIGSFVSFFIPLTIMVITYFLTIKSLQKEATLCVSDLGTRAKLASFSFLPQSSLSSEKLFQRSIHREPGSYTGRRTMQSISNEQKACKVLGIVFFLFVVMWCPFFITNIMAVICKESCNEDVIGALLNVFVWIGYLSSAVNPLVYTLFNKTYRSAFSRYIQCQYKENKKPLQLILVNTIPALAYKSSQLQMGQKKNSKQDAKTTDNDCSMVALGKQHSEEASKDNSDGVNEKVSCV
Chain of Serine/threonine-protein kinase Sgk2 (Homo sapiens) (Q9HBY8 whole entry): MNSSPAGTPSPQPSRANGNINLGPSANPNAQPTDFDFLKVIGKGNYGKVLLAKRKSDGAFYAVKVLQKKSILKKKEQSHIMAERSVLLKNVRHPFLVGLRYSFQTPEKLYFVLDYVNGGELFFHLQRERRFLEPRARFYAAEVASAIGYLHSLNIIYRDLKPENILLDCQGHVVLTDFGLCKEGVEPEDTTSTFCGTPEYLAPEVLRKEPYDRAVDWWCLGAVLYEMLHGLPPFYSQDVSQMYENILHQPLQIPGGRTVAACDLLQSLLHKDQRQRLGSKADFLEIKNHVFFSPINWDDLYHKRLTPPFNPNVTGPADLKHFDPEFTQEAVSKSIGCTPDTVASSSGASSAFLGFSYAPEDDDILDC
Chain of D(1B) dopamine receptor (Homo sapiens) (P21918 whole entry): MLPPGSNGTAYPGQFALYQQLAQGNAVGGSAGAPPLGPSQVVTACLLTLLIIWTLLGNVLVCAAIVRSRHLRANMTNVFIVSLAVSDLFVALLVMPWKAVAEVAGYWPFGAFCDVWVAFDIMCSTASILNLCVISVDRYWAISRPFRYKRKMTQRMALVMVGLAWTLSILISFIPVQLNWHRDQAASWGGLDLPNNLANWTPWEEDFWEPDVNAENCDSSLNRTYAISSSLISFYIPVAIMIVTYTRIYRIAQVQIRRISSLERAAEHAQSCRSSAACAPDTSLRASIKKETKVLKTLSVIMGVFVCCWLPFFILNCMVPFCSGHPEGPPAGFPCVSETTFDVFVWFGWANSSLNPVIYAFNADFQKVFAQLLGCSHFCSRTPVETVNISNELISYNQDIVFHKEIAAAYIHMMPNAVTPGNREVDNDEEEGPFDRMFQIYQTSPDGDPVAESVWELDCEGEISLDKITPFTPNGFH
Chain of Serine/threonine-protein kinase PAK 5 (Homo sapiens) (Q9P286 whole entry, looked up): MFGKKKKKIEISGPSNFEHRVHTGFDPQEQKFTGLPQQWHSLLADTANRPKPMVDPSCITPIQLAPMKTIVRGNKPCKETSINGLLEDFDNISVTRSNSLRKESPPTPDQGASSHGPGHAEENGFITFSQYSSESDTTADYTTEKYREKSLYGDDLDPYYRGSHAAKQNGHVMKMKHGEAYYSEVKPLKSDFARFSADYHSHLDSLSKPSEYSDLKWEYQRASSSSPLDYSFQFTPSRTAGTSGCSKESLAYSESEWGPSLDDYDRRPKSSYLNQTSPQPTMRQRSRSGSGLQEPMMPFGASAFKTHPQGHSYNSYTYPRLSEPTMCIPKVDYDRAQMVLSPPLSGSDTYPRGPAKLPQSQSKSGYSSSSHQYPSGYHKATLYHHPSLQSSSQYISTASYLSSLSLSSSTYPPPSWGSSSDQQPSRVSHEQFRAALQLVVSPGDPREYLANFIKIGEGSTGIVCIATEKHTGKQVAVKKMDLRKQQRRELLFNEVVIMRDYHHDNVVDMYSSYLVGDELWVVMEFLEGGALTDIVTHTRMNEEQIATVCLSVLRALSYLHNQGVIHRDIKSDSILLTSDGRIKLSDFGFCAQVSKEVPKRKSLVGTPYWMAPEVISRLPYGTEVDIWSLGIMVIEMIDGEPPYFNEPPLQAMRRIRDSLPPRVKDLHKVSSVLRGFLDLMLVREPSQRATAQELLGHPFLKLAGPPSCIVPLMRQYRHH
Chain of Ephrin type-B receptor 3 (Homo sapiens) (P54753 whole entry): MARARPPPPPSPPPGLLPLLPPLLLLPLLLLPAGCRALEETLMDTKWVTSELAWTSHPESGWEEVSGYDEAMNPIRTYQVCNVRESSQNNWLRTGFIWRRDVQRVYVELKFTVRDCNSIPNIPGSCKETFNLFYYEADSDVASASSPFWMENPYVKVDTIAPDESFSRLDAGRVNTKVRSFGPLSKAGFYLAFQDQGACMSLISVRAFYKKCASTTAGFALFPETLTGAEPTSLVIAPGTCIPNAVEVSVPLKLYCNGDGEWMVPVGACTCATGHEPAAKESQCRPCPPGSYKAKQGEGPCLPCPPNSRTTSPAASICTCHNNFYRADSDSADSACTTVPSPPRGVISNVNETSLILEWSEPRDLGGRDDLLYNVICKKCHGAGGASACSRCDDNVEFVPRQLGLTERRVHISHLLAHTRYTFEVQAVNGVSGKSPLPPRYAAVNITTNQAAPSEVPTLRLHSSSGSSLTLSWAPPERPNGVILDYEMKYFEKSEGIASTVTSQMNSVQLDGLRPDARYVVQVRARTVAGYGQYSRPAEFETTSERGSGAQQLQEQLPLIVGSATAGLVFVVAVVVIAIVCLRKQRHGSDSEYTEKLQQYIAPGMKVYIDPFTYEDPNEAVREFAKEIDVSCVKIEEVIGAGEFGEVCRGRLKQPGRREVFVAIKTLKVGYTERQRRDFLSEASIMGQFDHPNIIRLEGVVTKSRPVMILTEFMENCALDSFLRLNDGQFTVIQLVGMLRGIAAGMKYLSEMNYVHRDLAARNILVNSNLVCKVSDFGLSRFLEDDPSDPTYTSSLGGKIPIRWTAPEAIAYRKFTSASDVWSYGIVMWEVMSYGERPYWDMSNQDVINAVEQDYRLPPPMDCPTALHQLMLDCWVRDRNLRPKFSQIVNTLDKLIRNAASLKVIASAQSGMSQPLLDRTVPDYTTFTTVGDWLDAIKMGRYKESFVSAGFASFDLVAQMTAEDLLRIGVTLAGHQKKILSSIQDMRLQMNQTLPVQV
Chain of D(1A) dopamine receptor (Homo sapiens) (P21728 whole entry): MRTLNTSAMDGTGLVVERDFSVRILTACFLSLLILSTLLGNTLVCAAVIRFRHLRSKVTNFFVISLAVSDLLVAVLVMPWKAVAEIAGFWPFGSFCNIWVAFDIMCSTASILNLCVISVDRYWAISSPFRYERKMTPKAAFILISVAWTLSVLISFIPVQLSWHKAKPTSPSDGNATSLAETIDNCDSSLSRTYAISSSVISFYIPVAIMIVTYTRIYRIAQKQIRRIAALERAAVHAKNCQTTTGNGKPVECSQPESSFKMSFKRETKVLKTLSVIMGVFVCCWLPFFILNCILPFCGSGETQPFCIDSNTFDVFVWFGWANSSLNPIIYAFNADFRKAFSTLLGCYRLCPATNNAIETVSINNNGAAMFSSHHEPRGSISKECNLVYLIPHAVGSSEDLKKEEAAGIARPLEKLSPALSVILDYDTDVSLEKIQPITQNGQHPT
Chain of Fibroblast growth factor receptor 2 (Homo sapiens) (P21802 22-821 limits assumed): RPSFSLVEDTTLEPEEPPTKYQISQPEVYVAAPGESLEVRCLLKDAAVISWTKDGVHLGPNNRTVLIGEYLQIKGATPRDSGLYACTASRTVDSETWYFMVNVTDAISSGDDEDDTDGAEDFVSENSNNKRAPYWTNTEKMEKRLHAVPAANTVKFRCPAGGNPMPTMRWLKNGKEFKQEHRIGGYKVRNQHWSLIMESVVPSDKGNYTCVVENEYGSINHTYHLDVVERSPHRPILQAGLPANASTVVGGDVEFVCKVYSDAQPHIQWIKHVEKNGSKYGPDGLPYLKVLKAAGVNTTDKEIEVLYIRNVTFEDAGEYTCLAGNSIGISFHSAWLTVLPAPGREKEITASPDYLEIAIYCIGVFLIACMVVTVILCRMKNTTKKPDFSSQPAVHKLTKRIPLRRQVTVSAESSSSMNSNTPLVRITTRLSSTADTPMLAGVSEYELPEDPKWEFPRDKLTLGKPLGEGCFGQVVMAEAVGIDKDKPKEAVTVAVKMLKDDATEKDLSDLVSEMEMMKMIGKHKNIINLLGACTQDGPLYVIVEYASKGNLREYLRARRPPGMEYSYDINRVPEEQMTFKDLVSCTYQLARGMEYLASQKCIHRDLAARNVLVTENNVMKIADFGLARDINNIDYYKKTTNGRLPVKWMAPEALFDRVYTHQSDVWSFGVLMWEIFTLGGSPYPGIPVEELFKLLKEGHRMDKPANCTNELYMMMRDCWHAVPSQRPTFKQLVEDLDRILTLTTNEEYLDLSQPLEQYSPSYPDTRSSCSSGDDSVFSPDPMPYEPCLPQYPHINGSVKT
Chain of Serine/threonine-protein kinase DCLK3 (Homo sapiens) (Q9C098 whole entry): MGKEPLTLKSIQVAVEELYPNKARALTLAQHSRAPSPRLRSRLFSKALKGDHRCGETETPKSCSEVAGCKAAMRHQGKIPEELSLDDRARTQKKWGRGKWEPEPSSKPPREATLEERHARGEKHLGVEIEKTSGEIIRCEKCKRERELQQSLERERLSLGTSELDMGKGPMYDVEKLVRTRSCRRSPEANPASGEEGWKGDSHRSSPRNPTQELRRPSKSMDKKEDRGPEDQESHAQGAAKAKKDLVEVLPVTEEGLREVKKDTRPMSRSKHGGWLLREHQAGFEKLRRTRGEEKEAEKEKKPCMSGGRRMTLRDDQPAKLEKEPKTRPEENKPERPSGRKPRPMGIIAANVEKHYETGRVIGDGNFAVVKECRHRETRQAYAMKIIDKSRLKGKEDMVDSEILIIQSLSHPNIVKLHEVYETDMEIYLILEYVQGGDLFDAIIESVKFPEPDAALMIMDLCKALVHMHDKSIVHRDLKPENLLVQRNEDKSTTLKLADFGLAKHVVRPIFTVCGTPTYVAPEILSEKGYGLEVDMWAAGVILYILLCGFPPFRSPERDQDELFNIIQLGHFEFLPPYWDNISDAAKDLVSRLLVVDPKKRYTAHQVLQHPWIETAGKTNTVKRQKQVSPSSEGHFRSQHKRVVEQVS

## COc1ccc2c(c1)O[C@@H](c1ccc(OC)c(OC)c1)C[C@H]2NC(=O)C1(c2ccc3c(c2)OC(F)(F)O3)CC1 [A-1596586]
[1]
  residual activity: 91%
[2]
  residual activity: 75%
[3]
  inhibition: 20.7%
[4]
  residual activity: 82%
[5]
  residual activity: 89%
[6]
  residual activity: 100%
[7]
  % Inhibition of Control Specific Binding (Mean n=2): -3.3%
[8]
  residual activity: 94%
[9]
  % Inhibition of Control Specific Binding (Mean n=2): 95.9%
[10]
  residual activity: 94%
[11]
  residual activity: 100%
[12]
  % Inhibition of Control Specific Binding (Mean n=2): 9.3%
[13]
  residual activity: 100%
[14]
  residual activity: 92%
[15]
  inhibition: 8.84%
[16]
  residual activity: 87%
[17]
  residual activity: 100%
[18]
  residual activity: 94%
[19]
  residual activity: 57%
[20]
  residual activity: 95%
[21]
  residual activity: 100%
[22]
  residual activity: 90%
[23]
  % Inhibition of Control Specific Binding (Mean n=2): 14%
[24]
  residual activity: 92%
[25]
  residual activity: 93%
[26]
  residual activity: 96%
[27]
  residual activity: 98%
[28]
  residual activity: 98%
[29]
  residual activity: 100%
[30]
  residual activity: 100%
[31]
  residual activity: 100%
[32]
  residual activity: 96%
[33]
  residual activity: 92%
[34]
  residual activity: 78%
[35]
  residual activity: 83%
[36]
  residual activity: 100%
[37]
  residual activity: 78%
[38]
  residual activity: 96%
[39]
  % Inhibition of Control Values (Mean n=2): -6.2%
[40]
  residual activity: 91%
[41]
  residual activity: 95%
[42]
  residual activity: 100%
[43]
  residual activity: 91%
[44]
  % Inhibition of Control Specific Binding (Mean n=2): 2.9%
[45]
  residual activity: 100%

## COc1ccc2c(c1)O[C@H](c1ccc(OC)c(OC)c1)C[C@@H]2NC(=O)C1(c2ccc3c(c2)OC(F)(F)O3)CC1 [A-1596584]
[1]
  residual activity: 91%
[2]
  residual activity: 100%
[3]
  inhibition: 20%
[4]
  residual activity: 100%
[5]
  residual activity: 100%
[6]
  residual activity: 100%
[7]
  % Inhibition of Control Specific Binding (Mean n=2): -12.8%
[8]
  residual activity: 100%
[9]
  % Inhibition of Control Specific Binding (Mean n=2): 79.1%
[10]
  residual activity: 100%
[11]
  residual activity: 100%
[12]
  % Inhibition of Control Specific Binding (Mean n=2): 13.1%
[13]
  residual activity: 100%
[14]
  residual activity: 100%
[15]
  inhibition: 7.46%
[16]
  residual activity: 100%
[17]
  residual activity: 88%
[18]
  residual activity: 100%
[19]
  residual activity: 100%
[20]
  residual activity: 93%
[21]
  residual activity: 100%
[22]
  residual activity: 91%
[23]
  % Inhibition of Control Specific Binding (Mean n=2): 7.4%
[24]
  residual activity: 98%
[25]
  residual activity: 92%
[26]
  residual activity: 96%
[27]
  residual activity: 100%
[28]
  residual activity: 100%
[29]
  residual activity: 100%
[30]
  residual activity: 100%
[31]
  residual activity: 100%
[32]
  residual activity: 98%
[33]
  residual activity: 100%
[34]
  residual activity: 88%
[35]
  residual activity: 98%
[36]
  residual activity: 100%
[37]
  residual activity: 100%
[38]
  residual activity: 100%
[39]
  % Inhibition of Control Values (Mean n=2): -3.9%
[40]
  residual activity: 100%
[41]
  residual activity: 95%
[42]
  residual activity: 100%
[43]
  residual activity: 96%
[44]
  % Inhibition of Control Specific Binding (Mean n=2): -4%
[45]
  residual activity: 100%
